Counter-ions that a name gives are not always drawn.
System: Escherichia coli ATCC 25922
Assay: 50% growth inhibitory concentration (IC50) determination, Iso-Sensitest broth dilution
Format: cell-based
Conditions: Escherichia coli, ATCC25922, 16 h, strain Escherichia coli ATCC 25922; 10-point broth dilution, optical density at 600 nm over 16 h; read-out: Escherichia coli growth inhibition IC50
Method in brief: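 10-point twofold Iso-Sensitest broth dilution (e.g. 50 to 0.097 μM final) with DMSO stocks, incubated at 35±2° C. Growth followed by OD 600 nm every 20 min over 16 h; IC50 derived from growth inhibition during logarithmic phase.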

Row | SMILES | IC50 [µM]
1 | CS(=O)(=O)CCOc1cc(F)c2c(c1)CC(CNCCC1CN(c3cnc4c(n3)NC(=O)CO4)C(=O)O1)C2 (centres unmarked) [Example 353, 6-[5-[2-[[4-fluoro-6-(2-methylsulfonylethoxy)-2,3-dihydro-1H-inden-2-yl]methylamino]ethyl]-2-oxo-1,3-oxazolidin-3-yl]-4H-pyrazino[2,3-b][1,4]oxazin-3-one; formic acid] | 0.17
2 | CC(=O)N1CC(Oc2cc(F)c3c(c2)CC(CNCCC2CN(c4cnc5c(n4)NC(=O)CO5)C(=O)O2)C3)C1 (centres unmarked) [Example 354, 6-[5-[2-[[6-(1-acetylazetidin-3-yl)oxy-4-fluoro-2,3-dihydro-1H-inden-2-yl]methylamino]ethyl]-2-oxo-1,3-oxazolidin-3-yl]-4H-pyrazino[2,3-b][1,4]oxazin-3-one; formic acid] | 0.392
3 | CS(=O)(=O)N1CC(Oc2cc(F)c3c(c2)CC(CNCCC2CN(c4cnc5c(n4)NC(=O)CO5)C(=O)O2)C3)C1 (centres unmarked) [Example 355, 6-[5-[2-[[4-fluoro-6-(1-methylsalfonylazetidin-3-yl)oxy-2,3-dihydro-1H-inden-2-yl]methylamino]ethyl]-2-oxo-1,3-oxazolidin-3-yl]-4H-pyrazino[2,3-b][1,4]oxazin-3-one hydrochloride] | 0.162
4 | C[C@H](N)COc1cc(F)c2c(c1)CC(CN1CCC3(CC1)CN(c1cnc4c(n1)NC(=O)CO4)C(=O)O3)C2 (stereo partly drawn) [Example 356, 6-[8-[[6-[(2S)-2-aminopropoxy]-4-fluoro-2,3-dihydro-1H-inden-2-yl]methyl]-2-oxo-1-oxa-3,8-diazaspiro[4.5]decan-3-yl]-4H-pyrazino[2,3-b][1,4]oxazin-3-one; formic acid] | < 0.0977
5 | C[C@@H](N)COc1cc(F)c2c(c1)CC(CN1CCC3(CC1)CN(c1cnc4c(n1)NC(=O)CO4)C(=O)O3)C2 (stereo partly drawn) [Example 357, 6-[8-[[6-[(2R)-2-aminopropoxy]-4-fluoro-2,3-dihydro-1H-inden-2-yl]methyl]-2-oxo-1-oxa-3,8-diazaspiro[4.5]decan-3-yl]-4H-pyrazino[2,3-b][1,4]oxazin-3-one; formic acid] | < 0.0977
6 | O=C1COc2ncc(N3CC(CCNCC4Cc5cc(OC6CNC6)cc(F)c5C4)OC3=O)nc2N1 (centres unmarked) [Example 358, 6-[5-[2-[[6-(azetidin-3-yloxy)-4-fluoro-2,3-dihydro-1H-inden-2-yl]methylamino]ethyl]-2-oxo-1,3-oxazolidin-3-yl]-4H-pyrazino[2,3-b][1,4]oxazin-3-one; hydrochloride] | < 0.0977
7 | Cc1ncc(F)c2c1CC(CNC[C@@H](O)[C@H]1CN(c3cnc4c(n3)NC(=O)CO4)C(=O)O1)C2 (stereo partly drawn) [Example 360, 6-[(5R)-5-[(1R)-2-[(4-Fluoro-1-methyl-6,7-dihydro-5H-cyclopenta[c]pyridin-6-yl)methylamino]-1-hydroxyethyl]-2-oxo-1,3-oxazolidin-3-yl]-4H-pyrazino[2,3-b][1,4]oxazin-3-one; formic acid] | 0.319
8 | Cc1ncc(F)c2c1CC(CN[C@H]1C[C@H](C3CN(c4cnc5c(n4)NC(=O)CO5)C(=O)O3)C1)C2 (stereo partly drawn) [Example 361, 6-[5-[trans-3-[(4-fluoro-1-methyl-6,7-dihydro-5H-cyclopenta[c]pyridin-6-yl)methylamino]cyclobutyl]-2-oxo-1,3-oxazolidin-3-yl]-4H-pyrazino[2,3-b][1,4]oxazin-3-one] | 0.336
9 | Cc1ncc(F)c2c1CC(CN[C@H]1C[C@@H](C3CN(c4cnc5c(n4)NC(=O)CO5)C(=O)O3)C1)C2 (some centres unmarked) [Example 362] | 0.157
10 | Cc1nc(C#N)c2c(c1F)CC(CNCCC1CN(c3cnc4c(n3)NC(=O)CO4)C(=O)O1)C2 (centres unmarked) [Example 363, 4-fluoro-3-methyl-6-[[2-[2-oxo-3-(3-oxo-4H-pyrazino[2,3-b][1,4]oxazin-6-yl)-1,3-oxazolidin-5-yl]ethylamino]methyl]-6,7-dihydro-5H-cyclopenta[c]pyridine-1-carbonitrile; formic acid] | < 0.0977
11 | Cc1ncc(C#N)c2c1CC(CNCC[C@H]1CN(c3cnc4c(n3)NC(=O)CO4)C(=O)O1)C2 (stereo partly drawn) [Example 364, 1-methyl-6-[[2-[(5S)-2-oxo-3-(3-oxo-4H-pyrazino[2,3-b][1,4]oxazin-6-yl)-1,3-oxazolidin-5-yl]ethylamino]methyl]-6,7-dihydro-5H-cyclopenta[c]pyridine-4-carbonitrile] | < 0.0977
12 | Cc1ncc(C#N)c2c1CC(CNCC[C@@H]1CN(c3cnc4c(n3)NC(=O)CO4)C(=O)O1)C2 (stereo partly drawn) [Example 365, 1-methyl-6-[[2-[(5R)-2-oxo-3-(3-oxo-4H-pyrazino[2,3-b][1,4]oxazin-6-yl)-1,3-oxazolidin-5-yl]ethylamino]methyl]-6,7-dihydro-5H-cyclopenta[c]pyridine-4-carbonitrile] | < 0.0977
13 | N#CCOc1cc(F)c2c(c1)CC(CNCCC1CN(c3cnc4c(n3)NC(=O)CO4)C(=O)O1)C2 (centres unmarked) [Example 366, 2-[[7-fluoro-2-[[2-[2-oxo-3-(3-oxo-4H-pyrazino[2,3-b][1,4]oxazin-6-yl)-1,3-oxazolidin-5-yl]ethylamino]methyl]-2,3-dihydro-1H-inden-5-yl]oxy]acetonitrile; formic acid] | 0.144
14 | Cc1nccc2c1CC(CNCCc1cn(-c3cnc4c(n3)NC(=O)CO4)c(=O)o1)C2 (centres unmarked) [Example 371, 6-[5-[2-[(1-methyl-6,7-dihydro-5H-cyclopenta[c]pyridin-6-yl)methylamino]ethyl]-2-oxo-1,3-oxazol-3-yl]-4H-pyrazino[2,3-b][1,4]oxazin-3-one] | < 0.0977
15 | O=C1COc2ncc(-n3cc(CCNCC4Cc5cncc(F)c5C4)oc3=O)nc2N1 (centres unmarked) [Example 372, 6-[5-[2-[(4-fluoro-6,7-dihydro-5H-cyclopenta[e]pyridin-6-yi)methylamino]ethyl]-2-oxo-1,3-oxazol-3-yl]-4H-pyrazino[2,3-b][1,4]oxazin-3-one] | < 0.0977
16 | O=C1COc2ncc(N3CC4(CCN(CC5Cc6ccnc(Cl)c6C5)CC4)OC3=O)nc2N1 (centres unmarked) [Example 373, 6-[8-[(1-chloro-6,7-dihydro-5H-cyclopenta[c]pyridin-6-yl)methyl]-2-oxo-1-oxa-3,8-diazaspiro[4.5]decan-3-yl]-4H-pyrazino[2,3-b][1,4]oxazin-3-one] | < 0.0977
17 | Cc1nccc2c1CC(CN1CCC3(CC1)CN(c1cnc4c(n1)NC(=O)CO4)C(=O)O3)C2 (centres unmarked) [Example 374, 6-[8-[(1-methyl-6,7-dihydro-5H-cyclopenta[c]pyridin-6-yl)methyl]-2-oxo-1-oxa-3,8-diazaspiro[4.5]decan-3-yl]-4H-pyrazino[2,3-b][1,4]oxazin-3-one] | 0.207
18 | Cc1ncc(F)c2c1CC(CN(C)CCC1CN(c3cnc4c(n3)NC(=O)CO4)C(=O)O1)C2 (centres unmarked) [Example 376, 6-[5-[2-[(4-Fluoro-1-methyl-6,7-dihydro-5H-cyclopenta[c]pyridin-6-yl)methyl-methylamino]ethyl]-2-oxo-1,3-oxazolidin-3-yl]-4H-pyrazino[2,3-b][1,4]oxazin-3-one] | < 0.0977
19 | CNC(=O)COc1cc(C#N)c2c(c1C)CC(CNCCC1CN(c3cnc4c(n3)NC(=O)CO4)C(=O)O1)C2 (centres unmarked) [Example 383, 2-[[7-cyano-4-methyl-2-[[2-[2-oxo-3-(3-oxo-4H-pyrazino[2,3-b][1,4]oxazin-6-yl)-1,3-oxazolidin-5-yl]ethylamino]methyl]-2,3-dihydro-1H-inden-5-yl]oxy]-N-methylacetamide] | 0.139
20 | CNC(=O)COc1cc(C)c2c(c1C#N)CC(CNCCC1CN(c3cnc4c(n3)NC(=O)CO4)C(=O)O1)C2 (centres unmarked) [Example 384, 2-[[4-cyano-7-methyl-2-[[2-[2-oxo-3-(3-oxo-4H-pyrazino[2,3-b][1,4]oxazin-6-yl)-1,3-oxazolidin-5-yl]ethylamino]methyl]-2,3-dihydro-1H-inden-5-yl]oxy]-N-methylacetamide] | 0.167
21 | Cc1nc(Cl)nc2c1CC(CNCCC1CN(c3ccc4c(n3)NC(=O)CO4)C(=O)O1)C2 (centres unmarked) [Example 385, 6-[5-[2-[(2-chloro-4-methyl-6,7-dihydro-5H-cyclopenta[d]pyrimidin-6-yl)methylamino]ethyl]-2-oxo-1,3-oxazolidin-3-yl]-4H-pyrido[3,2-b][1,4]oxazin-3-one] | 0.923
22 | N#Cc1cc(OCc2cocn2)cc2c1CC(CNCCC1CN(c3cnc4c(n3)NC(=O)CO4)C(=O)O1)C2 (centres unmarked) [Example 386, 6-(1,3-oxazol-4-ylmethoxy)-2-[[2-[2-oxo-3-(3-oxo-4H-pyrazino[2,3-b][1,4]oxazin-6-yl)-1,3-oxazolidin-5-yl]ethylamino]methyl]-2,3-dihydro-1H-indene-4-carbonitrile] | < 0.0977
23 | Cc1noc(COc2cc(C#N)c3c(c2)CC(CNCCC2CN(c4cnc5c(n4)NC(=O)CO5)C(=O)O2)C3)n1 (centres unmarked) [Example 387, 6-[(3-methyl-1,2,4-oxadiazol-5-yl)methoxy]-2-[[2-[2-oxo-3-(3-oxo-4H-pyrazino[2,3-b][1,4]oxazin-6-yl)-1,3-oxazolidin-5-yl]ethylamino]methyl]-2,3-dihydro-1H-indene-4-carbonitrile] | < 0.0977
24 | Cn1ccc(COc2cc(C#N)c3c(c2)CC(CNCCC2CN(c4cnc5c(n4)NC(=O)CO5)C(=O)O2)C3)n1 (centres unmarked) [Example 388, 6-[(1-methylpyrazol-3-yl)methoxy]-2-[[2-[2-oxo-3-(3-oxo-4H-pyrazino[2,3-b][1,4]oxazin-6-yl)-1,3-oxazolidin-5-yl]ethylamino]methyl]-2,3-dihydro-1H-indene-4-carbonitrile] | 0.192
25 | Cn1nnc(COc2cc(C#N)c3c(c2)CC(CNCCC2CN(c4cnc5c(n4)NC(=O)CO5)C(=O)O2)C3)n1 (centres unmarked) [Example 389, 6-[(2-methyltetrazol-5-yl)methoxy]-2-[[2-[2-oxo-3-(3-oxo-4H-pyrazino[2,3-b][1,4]oxazin-6-yl)-1,3-oxazolidin-5-yl]ethylamino]methyl]-2,3-dihydro-1H-indene-4-carbonitrile] | < 0.0977
26 | Cn1cc(COc2cc(C#N)c3c(c2)CC(CNCCC2CN(c4cnc5c(n4)NC(=O)CO5)C(=O)O2)C3)cn1 (centres unmarked) [Example 390, 6-[(1-methylpyrazol-4-yl)methoxy]-2-[[2-[2-oxo-3-(3-oxo-4H-pyrazino[2,3-b][1,4]oxazin-6-yl)-1,3-oxazolidin-5-yl]ethylamino]methyl]-2,3-dihydro-1H-indene-4-carbonitrile] | 0.161

Reference: patent publication US20230167127A1, “COMPOUNDS AND THEIR USE IN THE TREATMENT OF BACTERIAL INFECTION” (Hoffmann-La Roche Inc., priority 2020, published 2023)
